Measurements reported in ChEMBL document CHEMBL5046279, “Discovery of a Partial Glucokinase Activator Clinical Candidate: Diethyl ((3-(3-((5-(Azetidine-1-carbonyl)pyrazin-2-yl)oxy)-5-isopropoxybenzamido)-1H-pyrazol-1-yl)methyl)phosphonate (BMS-820132)” (J Med Chem, 2022).
Converted amounts (≈) assume the structure as drawn.

What was measured:
[1] = Protein binding in human serum; format: ADME, cell-free; conditions: read-out: PB (converted)
[2] = target: hERG (KCNH2) (Homo sapiens, UniProt Q12809); experiment: Inhibition of hERG channel at 30 uM by patch clamp assay relative to control; format: toxicity
hERG (KCNH2), sequence (Q12809 whole entry): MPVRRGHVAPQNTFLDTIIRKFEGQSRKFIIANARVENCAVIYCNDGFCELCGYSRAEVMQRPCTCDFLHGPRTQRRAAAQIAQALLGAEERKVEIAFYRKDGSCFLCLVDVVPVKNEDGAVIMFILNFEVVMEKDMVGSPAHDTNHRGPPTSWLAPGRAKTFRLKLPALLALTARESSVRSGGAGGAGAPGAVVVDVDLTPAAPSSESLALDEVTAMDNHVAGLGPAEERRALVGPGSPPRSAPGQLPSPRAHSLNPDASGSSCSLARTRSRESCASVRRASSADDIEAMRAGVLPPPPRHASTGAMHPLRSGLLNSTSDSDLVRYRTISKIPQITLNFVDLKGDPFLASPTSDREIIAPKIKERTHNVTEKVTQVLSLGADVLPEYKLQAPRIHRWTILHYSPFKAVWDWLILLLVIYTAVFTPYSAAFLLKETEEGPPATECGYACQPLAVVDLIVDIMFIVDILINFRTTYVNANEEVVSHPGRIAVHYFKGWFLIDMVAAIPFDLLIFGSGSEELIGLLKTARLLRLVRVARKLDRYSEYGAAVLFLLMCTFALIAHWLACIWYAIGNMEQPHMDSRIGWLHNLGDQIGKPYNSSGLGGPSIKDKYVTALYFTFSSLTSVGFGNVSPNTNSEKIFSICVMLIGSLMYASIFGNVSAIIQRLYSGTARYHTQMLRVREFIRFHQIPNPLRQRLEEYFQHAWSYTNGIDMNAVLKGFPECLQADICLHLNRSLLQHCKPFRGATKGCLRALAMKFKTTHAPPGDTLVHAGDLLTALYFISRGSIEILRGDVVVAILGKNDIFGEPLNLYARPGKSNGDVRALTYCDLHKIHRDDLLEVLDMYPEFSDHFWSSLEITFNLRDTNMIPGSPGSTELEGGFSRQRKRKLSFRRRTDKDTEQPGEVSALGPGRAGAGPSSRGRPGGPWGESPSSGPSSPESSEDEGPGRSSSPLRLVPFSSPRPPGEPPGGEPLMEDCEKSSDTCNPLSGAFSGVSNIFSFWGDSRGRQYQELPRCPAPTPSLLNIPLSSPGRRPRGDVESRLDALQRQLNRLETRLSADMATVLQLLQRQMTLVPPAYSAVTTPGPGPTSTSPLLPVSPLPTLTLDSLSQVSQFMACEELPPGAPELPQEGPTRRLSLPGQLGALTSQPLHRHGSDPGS

[3] = Aqueous solubility of the compound at pH 6.5 using crystaline form of sample; format: physicochemical
[4] = target: T1, Cytochrome P450 2C8 (Homo sapiens, UniProt P10632); experiment: Inhibition of CYP2C8 (unknown origin); format: ADME
T1 sequence (P10632 whole entry): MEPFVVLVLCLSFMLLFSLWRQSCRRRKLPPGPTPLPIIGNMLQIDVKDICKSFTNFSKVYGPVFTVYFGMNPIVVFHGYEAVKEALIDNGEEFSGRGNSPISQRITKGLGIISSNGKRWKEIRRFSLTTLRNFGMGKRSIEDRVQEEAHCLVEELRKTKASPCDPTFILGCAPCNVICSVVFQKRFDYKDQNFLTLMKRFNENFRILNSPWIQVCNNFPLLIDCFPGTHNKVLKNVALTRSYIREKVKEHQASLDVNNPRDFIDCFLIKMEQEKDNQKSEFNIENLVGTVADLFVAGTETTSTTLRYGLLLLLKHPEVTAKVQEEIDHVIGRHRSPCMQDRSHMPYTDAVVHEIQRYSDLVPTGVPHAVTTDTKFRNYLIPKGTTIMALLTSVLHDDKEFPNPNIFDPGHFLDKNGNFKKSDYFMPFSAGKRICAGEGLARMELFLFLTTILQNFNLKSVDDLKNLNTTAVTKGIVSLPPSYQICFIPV

[5] = Tmax in Beagle dog at 3 mg/kg, po measured upto 24 hrs; format: ADME, organism-based, Canis lupus familiaris; conditions: in vivo
[6] = AUC (0 to 24 hrs) in Sprague-Dawley rat at 5 mg/kg, po measured upto 24 hrs by LC-MS/MS analysis; format: ADME, organism-based; set-up: route oral, dose 5 mg/kg, time <=24; conditions: in vivo
[7] = Volume of distribution at steady state in CD1 mouse at 2.5 mg/kg, iv measured upto 24 hrs by LC-MS/MS analysis; format: ADME, organism-based; conditions: in vivo, read-out: Vdss
[8] = target: T2, Nuclear receptor subfamily 1 group I member 2 (Homo sapiens, UniProt O75469); experiment: Induction of human PXR upto 50 uM
T2 sequence (O75469 whole entry): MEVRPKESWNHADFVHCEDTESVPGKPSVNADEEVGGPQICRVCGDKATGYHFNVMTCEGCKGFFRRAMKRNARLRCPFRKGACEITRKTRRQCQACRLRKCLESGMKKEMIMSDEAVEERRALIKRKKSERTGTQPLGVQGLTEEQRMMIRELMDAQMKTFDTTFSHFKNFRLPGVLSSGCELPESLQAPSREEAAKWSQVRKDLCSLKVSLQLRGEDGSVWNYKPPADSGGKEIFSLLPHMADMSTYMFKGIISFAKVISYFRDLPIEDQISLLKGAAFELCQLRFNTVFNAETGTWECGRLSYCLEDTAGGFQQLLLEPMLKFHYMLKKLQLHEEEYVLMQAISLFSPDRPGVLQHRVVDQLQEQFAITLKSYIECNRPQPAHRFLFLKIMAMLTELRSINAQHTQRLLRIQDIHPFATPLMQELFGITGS

[9] = tested on: Salmonella typhimurium; experiment: Mutagenicity in Salmonella typhimurium TA98 at 5000 ug/plate in presence of S9 fraction by Ames test; format: toxicity, organism-based; conditions: salmonella enterica subsp. enterica serovar typhimurium, dose 5000 µg
[10] = tested on: Mus musculus; experiment: Anti-hyperglycemic activity in C57BL/6J DIO mouse assessed as reduction in plasma glucose AUC at 3 umol/kg incubated for 120 mins by OGTT; format: functional; set-up: scale not given: the % may be the effect or the level left; conditions: dose 3 µM/Kg, 2 h, at 3 µmol/kg
[11] = Oral bioavailability in Sprague-Dawley rat at 5 mg/kg measured upto 24 hrs by LC-MS/MS analysis; format: ADME, organism-based; conditions: in vivo
[12] = tested on: Mus musculus; experiment: Anti-hyperglycemic activity in C57BL/6J DIO mouse assessed as reduction in plasma glucose level at 30 umol/kg, po qd measured on day 14 by OGTT; format: functional; set-up: scale not given: the % may be the effect or the level left; conditions: dose 30 µM/Kg; time 24 hrs; at 30 µmol/kg
[13] = tested on: Mus musculus; experiment: Anti-hyperglycemic activity in C57BL/6J DIO mouse assessed as reduction in plasma glucose AUC at 10 umol/kg incubated for 120 mins by OGTT; format: functional; set-up: scale not given: the % may be the effect or the level left; conditions: dose 10 µM/Kg, 2 h, at 10 µmol/kg
[14] = Oral bioavailability in Beagle dog at 3 mg/kg measured upto 24 hrs; format: ADME, organism-based, Canis lupus familiaris; conditions: in vivo
[15] = Cmax in Sprague-Dawley rat at 5 mg/kg, po measured upto 24 hrs by LC-MS/MS analysis; format: ADME, organism-based; set-up: route oral, dose 5 mg/kg, time <=24; conditions: in vivo
[16] = Permeability of compound at pH >= 5.5 by PAMPA assay; format: ADME; conditions: read-out: permeability
[17] = target: Voltage-gated inwardly rectifying potassium channel KCNH2 (Homo sapiens, UniProt Q12809); experiment: Inhibition of hERG by patch clamp method; format: toxicity
Voltage-gated inwardly rectifying potassium channel KCNH2, sequence (Q12809 whole entry): as the sequence (Q12809 whole entry) above

[18] = Volume of distribution at steady state in Sprague-Dawley rat at 2.5 mg/kg, iv measured upto 24 hrs by LC-MS/MS analysis; format: ADME, organism-based; conditions: in vivo, read-out: Vdss
[19] = Half life in CD1 mouse at 2.5 mg/kg, iv measured upto 24 hrs by LC-MS/MS analysis; format: ADME, organism-based; conditions: in vivo
[20] = tested on: Mus musculus; experiment: Anti-hyperglycemic activity in C57BL/6J DIO mouse assessed as reduction in plasma glucose level at 3 umol/kg, po qd measured on day 14 by OGTT; format: functional; set-up: scale not given: the % may be the effect or the level left; conditions: dose 3 µM/Kg; time 24 hrs; at 3 µmol/kg
[21] = tested on: Salmonella typhimurium; experiment: Mutagenicity in Salmonella typhimurium TA1535 at 5000 ug/plate in absence of S9 fraction by Ames test; format: toxicity, organism-based; conditions: salmonella enterica subsp. enterica serovar typhimurium; dose 5000 µg
[22] = Systemic plasma clearance in cynomolgus monkey at 3 mg/kg, iv measured upto 24 hrs; format: ADME, organism-based, Macaca fascicularis
[23] = AUC (0 to 24 hrs) in Sprague-Dawley rat at 2.5 mg/kg, iv measured upto 24 hrs by LC-MS/MS analysis; format: ADME, organism-based; set-up: route intravenous, dose 2.5 mg/kg, time <=24; conditions: in vivo
[24] = tested on: Mus musculus; experiment: Anti-hyperglycemic activity in C57BL/6J DIO mouse assessed as reduction in plasma glucose level at 30 umol/kg measured after 14 days; format: functional; set-up: scale not given: the % may be the effect or the level left; conditions: dose 30 µM/Kg; time 14 day; at 30 µmol/kg
[25] = Systemic plasma clearance in Sprague-Dawley rat at 2.5 mg/kg, iv measured upto 24 hrs by LC-MS/MS analysis; format: ADME, organism-based
[26] = tested on: Mus musculus; experiment: Anti-hyperglycemic activity in C57BL/6J DIO mouse assessed as reduction in plasma glucose AUC at 30 umol/kg, po measured after 120 mins by OGTT; format: functional; set-up: scale not given: the % may be the effect or the level left; conditions: dose 30 µM/Kg, 2 h, at 30 µmol/kg
[27] = Oral bioavailability in CD1 mouse at 5 mg/kg measured upto 24 hrs by LC-MS/MS analysis; format: ADME, organism-based; conditions: in vivo
[28] = Systemic plasma clearance in CD1 mouse at 2.5 mg/kg, iv measured upto 24 hrs by LC-MS/MS analysis; format: ADME, organism-based
[29] = Tmax in Sprague-Dawley rat at 5 mg/kg, po measured upto 24 hrs by LC-MS/MS analysis; format: ADME, organism-based; conditions: in vivo
[30] = tested on: L-type calcium channel; experiment: Inhibition of L-type calcium channel (unknown origin) at 10 uM by patch clamp assay relative to control; format: toxicity; conditions: human
[31] = Protein binding in mouse serum; format: ADME, cell-free; conditions: pooled result: one value given for 5 cell lines, strains, targets or settings, read-out: PB (converted)

CCOP(=O)(Cn1ccc(NC(=O)c2cc(Oc3cnc(C(=O)N4CCC4)cn3)cc(OC(C)C)c2)n1)OCC
fraction unbound [1]: 0.054
inhibition at 30 µM [2]: 29%
solubility [3]: 0.01 mg/mL (≈ 17.5 µM)
IC50 [4]: 7.7 µM
Tmax [5]: 48 min
AUC(0-t) [6]: 29.5 µM·h
Vd [7]: 0.3 L/kg
Activity [8]: Not Active
Activity [9]: Non-Toxic
Activity [10]: -50%
bioavailability [11]: 90%
Activity [12]: -46%
Activity [13]: -62%
bioavailability [14]: 66%
Cmax [15]: 13 µM
Papp [16]: > 400 nm/s
IC50 [17]: > 80 µM
Vd [18]: 0.3 L/kg
half-life [19]: 126 min
Activity [20]: -16%
Activity [21]: Non-Toxic
clearance [22]: 1.36 L/h/kg
AUC(0-t) [23]: 16.6 µM·h
Activity [24]: -63%
clearance [25]: 0.264 L/h/kg
Activity [26]: -59%
bioavailability [27]: 100%
clearance [28]: 0.174 L/h/kg
Tmax [29]: 54 min
inhibition at 10 µM [30]: 13%
fraction unbound [31]: 0.168
